# “And” between values parts separate entries of the source, which are not always exact repeats. Equal entries are not always repeated.
# Experiments:
# [1] = clinical; conditions: blood plasma of individual dialysis patients treated with acetic acid-containing dialysis fluid, dialysis time 4 hr
# Protocol: From ΔE of samples for calibration curve (W2 to 8, n=1), calibration curve (Y=aX+b, Y: ΔE, X: concentration μmol/L) was prepared by using least-squares method. No weighting of calibration curve was carried out. The range of quantitative analysis was from 20 to 2000 μmol/L.
# (§1) The measured value of each sample was calculated by applying the peak area ratio or ΔE to the calibration curve, and rounding off to one decimal place.
# [2] = clinical; conditions: blood plasma of individual dialysis patients treated with acetic acid-containing dialysis fluid, dialysis time 4 hr; remark: listed apart in the source
# Protocol: Into a polypropylene tube, each sample (400 μL, samples for calibration curve and human blood plasma) was taken, and the internal standard solution IS-W1 (100 μL) was added thereto. Further, 10% sulfosalicylic acid (special grade, manufactured by Wako Pure Chemical Industries) solution (100 μL) was added thereto and stirred. To this solution was added MTBE (400 μL, Lot No. EPF0734, manufactured by Wako Pure Chemical Industries) and stirred for 1 minute. After that, the mixture was subjected to centrifugation (RX-200, manufactured by TOMY SEIKO) at 10000 rpm at 4° C. for 5 minutes, and the supernatant (200 μL) was taken into another glass vial. Then, to the supernatant was added N-methyl-N-(tert-butyldimethylsilyl)trifluoroacetamide (MTBSTFA) (5 to 10 μL, Lot No. BCBC7878, manufactured by ALDRICH) and heated with Block Heater (DTU-2B, manufactured by TAITEC) at 60° C. for 1 to 2 hours. After that, the resultant solution was measured by using GC/MS (JMS-AMII150, manufactured by JEOL) in the following conditions.
# Samples were pretreated in the same method as that of “4. Pretreatment method and measurement method for samples” of Example 1, and then measured by GC/MS (5975C GCMSD, manufactured by Agilent) in the following conditions. […]
# as §1
structure (smiles),measurement,setting,value
CC(=O)O [acetic acid],"Measured value, Enzyme method",[1],1620.3 µmol/L and 1653.5 µmol/L and 1896.4 µmol/L
same,concentration at 4 h,"[1]; human, plasma, other: dialysis with a dialysis fluid containing acetic acid, Measured value, Enzyme method",1680 µM
same,"Measured value, GC/MS method",[2],1745.5 µmol/L and 1854.9 µmol/L and 1991.5 µmol/L
same,concentration at 4 h,"[2]; human, plasma, other: dialysis with a dialysis fluid containing acetic acid, Measured value, GC/MS method",1790 µM

# From patent publication US20140315322A1 (FUSO PHARMACEUTICAL INDUSTRIES, LTD., priority 2011, published 2014)
